Source: patent US11371994B2, “Phosphorylated Akt-specific capture agents, compositions, and methods of using and making” (California Institute of Technology, priority 2013, dated 2022)
Entries after “also recorded” stand apart in the source; their conditions may differ. Square brackets hold non-standard residues; d marks the D form. Ends that are not written are not given here. * marks the point of attachment. S3 = D-Pra clicked to acylated azidolysine-PEG2-biotin, with 5-azido-pentanoic acid; 5FAM = O=C1OC2(c3ccc(O)cc3Oc3cc(O)ccc32)c2ccc(C(=O)*)cc21; 5‑azidopentanoyl = [N-]=[N+]=NCCCCC(=O)*; Lys(N3) = [N-]=[N+]=NCCCC[C@H](N)C(=O)O; Peg2 = PEG spacer (Fmoc-NH-(PEG)2-OH); dPra = C#CC[C@@H](N)C(=O)O; Ahx = NCCCCCC(=O)O

How the values were obtained:
Akt2 [1] = molecular target: T1, Akt2 (Homo sapiens, UniProt P31751); assay: Non-radioactive kinase assay, phosphorylation of GSK-3α/β fusion protein; format: biochemical; design: purchased Abcam; settings: relative to DMSO control
Method: The non-radioactive kinase assay kit for Akt2 was purchased from Cell Signaling. Ligand solutions were made in DMSO. Kinase reactions were set up in 1× kinase buffer (25 mM trisHCl (pH 7.5), 10 mM MgCl2, 0.01% Triton-X, 1× Complete protease inhibitor (Roche), 1× Phosstop phosphatase inhibitor (Roche)), each 25 μL reaction mixture containing 400 ng Akt2, 400 ng GST-GSK-3α/β fusion protein, […] and 0.5 μL of peptide solutions in DMSO or DMSO only. Reactions were allowed to proceed for 30 minutes at 30° C. A reaction mixture was also prepared using a 1:2.5 dilution of anti pS473 antibody (Cell Signaling) in the kinase buffer instead of the peptide ligand or DMSO. The reactions were quenched by adding 12.5 μL of 2×SDS sample loading buffer and heating at 95° C. for five minutes. 10 μL from each sample was loaded on an any kD SDS gel (BioRad) and run for an hour at 110 volts. Following semidry transfer of the gel to a nitrocellulose membrane, the membrane was blocked in 5% nonfat milk/TBST for an hour at 4° C., and treated overnight at 4° C. with a 1:200 dilution of Phospho GSK-3α/β Ser (21/9) rabbit antibody (Cell Signaling) in 0.5% milk/TBST. Following washes, the membrane was treated with a 1:2000 dilution of mouse anti-rabbit-HRP antibody for an hour at 4° C. After four five minute washes with TBST, and one five minute wash with TBS, the membrane was treated with West Dura ECL substrate (Thermo Scientific) and imaged on film.

[2] = test system: SKOV3 ovarian cancer cells; assay: Western blots of treated SKOV3 cells (Akt signaling pathway); format: cell-based
Method: Western blots were performed according to standard protocols. Briefly, cells were lysed with cell lysis buffer (Cell Signaling Technology) containing protease and phosphatase inhibitors (Cell Signaling Technology). Cell lysates were quantified with a Bradford protein assay (Thermo Scientific) and prepared for gel electrophoresis in Laemmli sample buffer and reducing agent. 20 μg of cell lysate were added to precast polyacrylamide gels (Bio-Rad) and proteins were separated by electrophoresis followed by transfer to PVDF membrane. Membranes were then blocked and probed with primary antibodies followed by horseradish peroxidase-conjugated secondary antibodies. The following antibodies were used according to manufacturer protocol: p-GSK3β (Cell Signaling, 9323), GSK3 β (Cell Signaling, 12456), AKT (Cell Signaling, 4691), p-AKT (S473) (Cell Signaling, 4060), Actin (Cell Signaling, 8456), HRP-linked Anti-rabbit IgG (Cell Signaling, 7074). The bands were visualized by chemiluminescence (Thermo Scientific).

SKOV3 cells = assay: XTT cell viability assay; format: cell-based; settings: 50 μM
Method: (§1) The XTT assay kit was purchased from Cell Signaling Technology (#9095) and used according to manufacturer protocol. Briefly, 1×10^4 cells were seeded in a 96-well plate. The following day, cells were serum starved and treated with capture agent. Following treatment, the XTT tetrazolium salt was added to the media and after 1 hour the absorbance at 450 nm was measured in a 96-well plate reader.

OVCAR3 cells = assay: XTT cell viability assay; format: cell-based; settings: 50 μM
Method: as §1

Akt2 [3] = molecular target: T1, Akt2; assay: Single component ELISA, PCC agent as capture or detection agent (relative affinity); format: binding; design: purchased Abcam
From the text: FIG. 23: A. ELISA assays in which the PCC Agents are utilized as either as surface-localized capture agents (for N-tL, C-tL) or as the detection agent (for mono-L, bi-L). Such assays provide relative affinity measurements, which are given as EC50 values in the key. […] C. C-tL distinguishes the full length Akt2 from isoform proteins Akt1 and Akt3. D. The 32 amino acid long C terminal fragment from Akt2, Akt1 and Akt3. The hydrophobic motif is highlighted in blue. pS refers to phospho-serine. […] F. Selectivity assays: Biotinylated ligands or biotinylated pS473 antibody is immobilized on streptavidin-agarose and treated with OVCAR3 cell lysate. The eluents are stained with a pan-Akt antibody or pS473 Akt antibody.
1.25 μM biotinylated ligand was prepared by diluting the 1 mM stock in binding buffer (25 mM tris chloride, pH=7.4, 150 mM NaCl, 0.1% BSA, 0.05% Tween 20). The prepared ligand solution or 0.125% DMSO in buffer (buffer control) was immobilized on a High Capacity Streptavidin 96 well plate (Thermo Scientific). After washing away the excess ligand, the plate was blocked overnight with 1% BSA/25 mM tris chloride, pH=7.4/150 mM NaCl, 0.05% Tween 20. 2.5 μM solutions of the His6 (SEQ ID NO:28) tagged target phosphopeptide epitope Akt2 amino acids 450-481, His6 (SEQ ID NO:28) tagged Akt1 amino acids 449-480, His6 (SEQ ID NO:28) tagged Akt3 amino acids 448-479 were added to each of the wells. Following three washes with the binding buffer, the plate was treated for an hour with a 1:1000 dilution of anti His6 (SEQ ID NO:28) mouse monoclonal antibody. A 1:10,000 dilution of goat anti mouse antibody-Horse Radish Peroxide conjugate in binding buffer was added to the wells. The plates were washed four times, five minutes each, with 0.05% Tween 20/TBS (25 mM tris chloride, pH=7.5, 150 mM NaCl) and once with TBS (25 mM tris chloride, pH=7.5, 150 mM NaCl). Color was developed by adding TMB substrate (KPL) to each well. The reaction was quenched with 0.5 M H2SO4. The A450 measured on a 96-well plate reader. The Net A450 was obtained by subtracting the absorbance value for the blank control (no immobilized ligand) from each of the triplicate values obtained for the ligand-epitope interaction. The selectivity assay with full length His6 (SEQ ID NO:28) tagged Akt1, Akt2 and Akt3 was performed following the same protocol, using 25 nM protein instead of 2.5 μM His6 tagged peptide epitope.

Akt = molecular target: T2, Akt (Homo sapiens, UniProt P31751); assay: OVCAR3 lysate pull-down (immunoprecipitation) assay; format: binding; settings: for immunoprecipitation of Akt from OVCAR3 cell lysate: eluents stained with pan-Akt antibody
T2 construct: endogenous in cells; host or cells: OVCAR3
Method: OVCAR3 cells (ATCC) were grown in RPMI-1640 media containing 20% fetal bovine serum. Passage three cells were grown to ˜80% confluence. Cells were lysed with lysis buffer (10 mM Tris-Cl (pH=7.5), 100 mM NaCl, 1% (v/v) Triton X-100, 0.1% SDS (w/v), 0.5% deoxycholate, 1 mM DTT, 1 mM EDTA, 1× PhosStop phosphatase inhibitors (Roche), 1× Complete protease inhibitors (Roche)) and the amount of protein measured using BCA Protein Assay Kit (Pierce Biotechnologies, Inc). Streptavidin-agarose resin solution (EMD) was swelled in TBST (25 mM tris chloride, pH=7.5, 150 mM NaCl, 0.05% Tween-20). Each of the biotinylated ligands was immobilized on the Streptavidin-agarose resin by adding 7.2 μL of 1 mM ligand stock (DMSO) to 10 μL of the swelled streptavidin-agarose resin. For the blank control, the resin was treated with 7.2 μL of 1 mM biotinylated acyl glycine. […] After shaking overnight at 4° C., 50 μM D-biotin was added to the resin to block any remaining sites. The resin was washed with TBST five times, for fifteen minutes each. The resin was then swelled in binding buffer for two hours. To each of the immobilized ligands, 200 μL OVCAR3 cell lysate (1.9 mg/ml) was added. The tubes were shaken at 4° C. for 18 hours. The beads were extensively washed, three times for fifteen minutes in binding buffer, three times (fifteen minutes) in TBST, and three times (fifteen minutes) in TBS to remove unbound proteins. The resin bound proteins were eluted by adding 40 μL of 2×SDS-PAGE sample loading buffer (BioRad) and heating at 95° C. for five minutes. A 1:10 diluted sample of lysate in sample loading buffer was prepared by mixing 1 μL of the sample with 9 μL sample loading buffer and denaturing the sample by heating at 95° C. for five minutes. 10 μL of each sample was loaded on a 12% SDS-PAGE gels (BioRad) and run for 80 minutes at 110 volts. Three identical gels were loaded and run at the same time. One gel was used for Coomassie staining with Coomassie Fluor Orange Protein Gel Stain (Molecular Probes) following the manufacturer's protocol. The two other gels were transferred to nitrocellulose membranes by the semidry transfer method, blocked for two hours at 4° C. with 5% non-fat milk, and treated overnight at 4° C. with a 1:1000 dilution of pan-Akt rabbit monoclonal antibody (Cell Signaling Technology) and a 1:1000 dilution of pS473 Akt rabbit monoclonal antibody (Cell Signaling Technology), respectively, in 0.5% non-fat milk. The membranes were washed and treated for an hour with a 1:10,000 dilution of monoclonal mouse anti-rabbit-HRP secondary antibody (Cell Signaling Technology) in 0.5% milk. After five washes of five minutes each with TBST and one wash of five minutes with TBS, the blots were developed with West Dura ECL substrate (Thermo Scientific) and imaged on film.

Akt2 [4] = molecular target: T1, Akt2; settings: read-out: equilibrium dissociation constant KD; SPR, Akt2 protein as analyte, 1:1 binding model, 10° C.
Method: A Biacore T100 machine was used for SPR experiments. A Streptavidin Chip (Series S, G.E. Healthcare) was conditioned as per manufacturer's recommendation. A stock of 1 mM biotinylated ligand was diluted into HBSP+ Buffer (G.E. Healthcare) to a final concentration of 100 nM and ˜150 RU was immobilized on the chip. Serial dilutions of the Akt2 protein were made in HBSP+ buffer for the experiment with the immobilized N-tL. The solution was flowed over the chip at 50 μL/min. Binding and dissociation were carried out at 10° C. with a contact time of 350 sec, a dissociation time of 390 sec, and a stabilization time of 200 sec, with buffer blanks between each concentration. The response was double corrected, using an unmodified reference flow cell and the response for the 0 concentration of Akt2 on the sample flow cell. The data was fitted to the kinetic Langmuir 1:1 binding model using the Biacore Evaluation software for T100 to calculate the dissociation constant.

T2 sequence (P31751 whole entry): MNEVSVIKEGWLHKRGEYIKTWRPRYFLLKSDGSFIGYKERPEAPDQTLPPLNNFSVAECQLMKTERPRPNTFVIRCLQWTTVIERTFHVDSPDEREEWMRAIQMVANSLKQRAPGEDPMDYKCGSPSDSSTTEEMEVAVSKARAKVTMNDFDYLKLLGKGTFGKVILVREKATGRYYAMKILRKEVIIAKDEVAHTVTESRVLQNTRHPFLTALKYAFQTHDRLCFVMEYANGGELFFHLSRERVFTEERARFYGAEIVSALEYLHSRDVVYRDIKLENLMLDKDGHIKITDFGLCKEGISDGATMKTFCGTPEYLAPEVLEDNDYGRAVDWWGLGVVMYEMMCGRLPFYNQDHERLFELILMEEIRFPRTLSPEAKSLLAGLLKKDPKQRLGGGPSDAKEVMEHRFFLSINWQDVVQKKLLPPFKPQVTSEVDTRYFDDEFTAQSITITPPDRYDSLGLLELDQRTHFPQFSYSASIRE
T1 sequence (P31751 whole entry, the tested form may be a part): as the sequence (P31751 whole entry) above

Row | Compound | influence on Akt2 kinase activity (p-GSK-3α/β level) (Akt2 [1]) | phospho-GSK-3β level after pretreatment and EGF stimulation ([2]; 50 μM, 1, 6 and 12 hours pretreatment, then EGF 10 minutes) | phospho-GSK-3β level after pretreatment and EGF stimulation ([2]; 50 μM, 24 hours pretreatment, then EGF) | cell viability (XTT) (SKOV3 cells) | cell viability (XTT) (OVCAR3 cells) | EC50 (Akt2 [3]; read-out: EC50 from single component ELISA) | affinity (Akt2 [3]; strongest binding triligand) | immunoprecipitation of phosphorylated Akt from OVCAR3 cell lysate (Akt; eluents stained with pS473 Akt antibody) | immunoprecipitation of Akt from OVCAR3 cell lysate (Akt) | immunoprecipitation of Akt from OVCAR3 cell lysate (Akt; listed as N-tri1) | Kd (Akt2 [4]) | p-Akt level ([2]; 50 μM, time course) | p-GSK-3β level ([2]; 50 μM, time course)
1 | tri_i: Akt-inhibiting C-terminal triligand, TAT-modified, with fluorescein label (FIG. 31, 35a) (peptide 1 Ac-[Lys(N3)][dH][dD]GG[dF]; peptide 2 S3-[dW][dK][dV][dK]; peptide 3 {5FAM-Ahx-Cys-Peg2}-[dH][dN]G[dY][dF][dPra]; peptide 4 {5‑azidopentanoyl-Peg2}-GRKKRRQRRRPPQQ-NH2; not fully specified (C-terminus); also: arms joined by triazoles, fluorescein label (Peg2-Cys-Ahx-5-carboxyfluorescein) coupled via DBCO-maleimide to TAT) | inhibit | less phospho-GSK-3β than EGF stimulation alone; also recorded: less phospho-GSK3-β than untreated cells stimulated with EGF alone | dramatic increase in levels of phospho-GSK3-β | significant decrease in viability after 1 day treatment; also recorded: initial drop in cell viability and remain consistently lower than untreated cells for 5 days | significant decrease in viability after 1 day treatment; also recorded: initial drop in cell viability after 24 hours, followed by an increase before finally decreasing again |  |  |  |  |  |  |  | 
2 | CC(=O)NC(CCCCn1cc(C[C@@H](NC(=O)[C@H](CCCCn2cc(C[C@@H](NC(=O)[C@@H](Cc3ccccc3)NC(=O)[C@@H](Cc3ccc(O)cc3)NC(=O)CNC(=O)[C@@H](CC(N)=O)NC(=O)[C@@H](Cc3c[nH]cn3)NC(=O)[C@H](CCCCn3cc(C[C@@H](NC(C)=O)C(=O)N[C@H](Cc4ccc(O)cc4)C(=O)N[C@H](Cc4ccc(O)cc4)C(=O)N[C@H](CCCNC(=N)N)C(=O)N[C@H](Cc4ccccc4)C(=O)NCC(N)=O)nn3)NC(C)=O)C(=O)O)nn2)NC(C)=O)C(=O)N[C@H](Cc2c[nH]c3ccccc23)C(=O)N[C@H](CCCCN)C(=O)N[C@@H](C(=O)N[C@H](CCCCN)C(=O)N[C@H](CC(C)C)C(N)=O)C(C)C)nn1)C(=O)NCCOCCOCCOCCC(=O)NCCNC(=O)CCCC[C@@H]1SC[C@@H]2NC(=O)N[C@@H]21 (some centres unmarked) [N-tL] | activate Akt above baseline; also recorded: activate Akt2 |  |  |  |  | 19 nM | ~20 nM | immunoprecipitate comparable amounts of active pS473 Akt | immunoprecipitates more Akt, irrespective of its phosphorylation state | more efficient; also recorded: immunoprecipitate Akt2 from OVCAR3 cells | 25 nM |  | 
3 | tri_a: Akt-activating N-terminal triligand, conjugated to HIV TAT peptide via PEG spacers for cell assays (FIG. 28, 33A) (peptide 1 WKVKL; peptide 2 HNGYF; peptide 3 XYYRFG; peptide 4 GRKKRRQRRRPPQQ; not fully specified; D-residues; non-natural residues) | activate |  |  | significant increase in viability after 1 day treatment followed by a decline; also recorded: initial spike in cell viability after 24 hours, followed by a linear decrease with time | significant increase in viability after 1 day treatment followed by a decline; also recorded: sharp increase after 24 hours is followed by a steady decrease before finally stabilizing |  |  |  |  |  |  | initially increases and then steadily decreases over time | highest level of GSK3B phosphorylation is seen after 1 hour treatment; also recorded: clear increase in the p-GSK-3β level relative to the untreated and EGF-stimulated cells
